{"source": "patent US11360104B2", "about": "“Microbial-based biosensors” (TRUSTEES OF BOSTON UNIVERSITY, priority 2017, dated 2022)", "key": {"Pimelobacter simplex": {"test_system": "Pimelobacter simplex", "test": "Solvent and steroid exposure growth curves", "text": "In order to identify steroid binding Transcription Factors, a whole transcriptome RNA sequencing (RNA-Seq) screen was developed (FIG. 7). The growth of Pimelobacter simplex bacteria was profiled with respect to the starting inoculation density, solvent toxicity, and the addition of steroids (FIG. 16). […] P. simplex bacteria were screened against the steroid solvents ethanol (EtOH) and dimethyl sulfoxide (DMSO). […] Steroid growth curves were similarly performed using a starting OD of 0.005 and constant solvent dosing with titrations of steroids. […] P. simplex bacteria were grown in the presence of 700 μM testosterone, 21.88 μM progesterone, 87.50 μM estrone, 21.88 μM 17β-estradiol, 21.88 μM hydrocortisone, or 175.00 μM aldosterone concentrations were selected for comparison.\nIn order to properly determine the doubling time of the strain, growth curves were performed. All growth curves were done in 100 μL per well volumes in 96 well flat clear bottom black polystyrene TC-treated microplates which were individually wrapped with a lid and sterile (Corning #3603). Measurements were done by an Infinite M200 Pro (TECAN) spectrophotometer at the temperature suited for P. simplex. Readings were performed over 96 cycles of 15 minutes each at 600 nm absorbance with 25 flashes in a 3×3 (XY-Line) type reads per well. In between reads there was orbital shaking at 150 rpm frequency for a total of 10 minutes. In order to characterize the growth alone, a ½ serial dilution of 9 concentrations from 0.5-0.0020 OD600 nm were prepared in the respective media. Then each concentration was measured as previously described using a microplate reader (TECAN) and normalized against a media background control in technical triplicate. Afterward, an appropriate starting concentration of cells was chosen with a substantially long lag-phase, linear log phase, and a plateau of stationary-phase.\nOnce an appropriate starting cell concentration was chosen, a secondary growth curve was performed to test the toxicity levels of the solvents used to dissolve steroids of interest. Since the steroids used are heavily hydrophobic, they often need to be dissolved in organic solvents such as DMSO or ethanol which are toxic to bacteria at high concentrations. P. simplex was incubated under microplate reader conditions previously mentioned at a starting OD determined by the first growth curve with DMSO, ethanol, or H2O at ½ serial dilutions for a total of eight concentrations (50-0.39%) tested in technical triplicate. Two controls were included per solvent; a positive control without solvent and a media control which allowed for appropriate normalization. Solvent exposure growth curves allowed for choosing the maximum amount of solvent concentration that strains would sustain while maintaining relative viability in order to determine a range of steroid concentrations which could be used.\nA tertiary growth curve was performed to test the toxicity levels of steroid specific to P. simplex. The strain was incubated under microplate reader conditions previously mentioned at a starting OD determined by the first growth curve and the highest solvent concentration corresponding to the steroid of interest with steroid at ½ serial dilutions for a total of seven concentrations tested in singlet. Testosterone, progesterone, 17β-estradiol, hydrocortisone, and aldosterone were all dissolved in ethanol while estrone was dissolved in DMSO. Three controls were included for each steroid; a positive control with the highest tolerable solvent concentration (%), a positive control with media, and a media control which allowed for normalization. Steroid exposure growth curves allowed for choosing the maximum amount of steroid concentration that P. simplex would sustain while maintaining relative viability."}, "[1]": {"test": "QD-FRET sensor progesterone titration in HEPES 1×", "type": "biochemical", "experimental": "(§1) Fluorescent spectra were analyzed using MATLAB (Mathworks) and were fitted with a sum of 2 Gaussians (D=QD: FWHM=27 nm, λmax=607 nm; A=DNA-Cy5: FWHM=40 nm, λmax=669 nm). The area of each Gaussian was extracted and FD and FA are obtained respectively for the fluorescence of QD (donor) and Cy5 (acceptor).\nRaw dose-response curves were obtained by plotting FA/FD as a function of the steroid concentration. Sensor output is the normalization of the fluorescent spectra of the donor and acceptor according to the following equation:\n[formula] Where F=FA/FD, Fi is for [PRG]=i, Fmin stands for the average on 3 experiments of F for [PRG]=0 nM and Fmax stands for the average on 3 experiments of F for [PRG]=10 uM.\nNon-normalized dose-response were fitted with Origin Pro 8 software with the non-linear equation:\nMathematically, the limit of detection in the signal domain (LD) is given by:LD=meanblank−3.3×σtest LD=meanblank−3.3×σtest where meanblank is the mean signal for a reagent blank and σtest is the pool standard deviation for all test samples in the dilution series, calculated as[9]:\nThen the Limit of detection (LOD) is calculated using the parameters of the fit with the non-linear equation (XX) for y=LD:\n(§2) Description for a typical experiment, using a molar ratio of QD/TF/DNA=1/4/18. QDs in (275 uL, 0.15 uM in HEPES 1×, pH 7.6 with 1% BSA) were mixed with AIY-his6 (275 uL, 0.6 uM in HEPES 1× pH 7.6) at room temperature for 45 min. Then, the double-stranded DNA labelled with a Cy5 fluorescent probe at the 3′ and 5′ ends (275 uL, 2.7 uM in HEPES 1× pH 7.6) was added to the mixture. After 30 min, 220 uL of HEPES 1× pH 7.5 and 330 uL of 5× binding buffer (25 mM MgCl2, 25% glycerol, and 250 mg/L Invitrogen™ UltraPure™ Salmon Sperm DNA in Tris-HCl 0.1M) were added and the mixture is left 15 more min at RT.\n(§3) 50 uL of the sensor (QD/TF/DNA) was then splitted in 3×9 centrifuge tubes to which 10 uL of progesterone at the desired concentration is added. As such, the final concentration of QD/TF/DNA for the measurements is 25 nM/100 nM/450 nM. A 384 well plate was filled with 60 uL of each solution. The fluorescence intensity was monitored on a spectrofluorimeter from 535 nm to 800 nm exciting at 400 nm, equipped with a 450 nm long-pass filter in emission."}, "PinR": {"target": "PinR (Nocardioides simplex (Pimelobacter simplex), UniProt A0A0A1DUF2)", "sequence (A0A0A1DUF2 entry or part of it)": "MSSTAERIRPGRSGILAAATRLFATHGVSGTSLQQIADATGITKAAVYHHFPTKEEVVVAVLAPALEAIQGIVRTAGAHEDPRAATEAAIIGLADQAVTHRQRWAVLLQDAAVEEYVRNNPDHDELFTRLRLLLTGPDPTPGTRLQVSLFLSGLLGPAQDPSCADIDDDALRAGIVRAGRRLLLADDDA", "test": "Cross-reactivity assay of steroids using sensor 3", "type": "biochemical", "conditions": "sensor 3, HEPES 1×, 0 to 10 uM of steroids", "experimental": "The cross-reactivity of progesterone regarding the different steroids was calculated with the following equation:\nDescription for a typical experiment, using a molar ratio of QD/TF/DNA=1/4/18.\n50 uL of the sensor (QD/TF/DNA) was then splitted in 3×9 centrifuge tubes to which 10 uL of progesterone at the desired concentration is added. […] A 384 well plate was filled with 60 uL of each solution. The fluorescence intensity was monitored on a spectrofluorimeter from 535 nm to 800 nm exciting at 400 nm, equipped with a 450 nm long-pass filter in emission."}, "[2]": {"test_system": "Pimelobacter simplex PinR (AIY20223.2; SEQ ID NO: 1), his-tagged (AIY-his6)", "test": "QD-FRET steroid sensor (QD-PinR + DNA-Cy5), steroid-induced TF-DNA unbinding", "type": "biochemical", "conditions": "sensor 3 in HEPES 1×; 0 to 10 uM steroid", "experimental": "as §1\nRaw dose-response curves were obtained by plotting FA/FD as a function of the steroid concentration. Sensor output is the normalization of the fluorescent spectra of the donor and acceptor according to the following equation: […]\nNon-normalized dose-response were fitted with Origin Pro 8 software with the non-linear equation: […]\nThe cross-reactivity of progesterone regarding the different steroids was calculated with the following equation: […]\nCdSe/CdS/ZnS QDs were coated with a zwitterionic polymer bearing histamine anchoring functions (P1, SI). Once the hydrophobic QDs were transferred into H2O using a biphasic ligand exchange, his-tagged TFs were self-assembled on the QD surface to produce the QD-TF. Addition of the double stranded, Cy5-labeled TF-binding sequence completed probe assembly as the oligo binds to the TF in the absence of progesterone (PRG). The molar ratios of the QD, TF, and DNA in the sensor were controlled through the stoichiometric ratios of the mixed parts.\nTwo fluorescent spectra were recorded, one from the QDs and one from the Cy5 due to the FRET.\nFirst, the DNA1 (most binding sequence) has been used to build the first biosensor, named sensor 1. For this sensor, a ratio of QD/TF/DNA of 1/4/18 was chosen. […] In order to homogenize the fluorescent signals in between batches and different sensor variations, FA/FD was normalized to give the signal output. Signal output is then plotted against PRG concentration to give a dose-response curve (FIG. 9C) This curve was fitted with the non-linear equation XX to obtain the half-maximal inhibitory concentration (IC50) (Table 13).\nas §2, §3"}}, "note": "Read-outs that look alike come from different tables or passages of the source. {Cy5} = Cy5 fluorescent dye attached at the strand end", "data": [{"compound": "CCO", "note": "[EtOH, ethanol]", "values": [{"measurement": "highest solvent concentration that did not produce a physiological change in growth", "setting": "Pimelobacter simplex", "result": 0.70, "unit": "% by volume"}]}, {"compound": "DNA4: Cy5-labelled PinR binding probe 5Cy5-CCTTAACTAGCCGTTCTGTTAGTTATT C-3Cy5 (SEQ ID NO: 30) (DNA CCTTAACTAGCCGTTCTGTTAGTTATTC; DNA, 5' {Cy5}, 3' {Cy5}, backbone and methylation of C not given here; hybridized with complementary strand to form double-stranded fluorescent oligo)", "values": [{"measurement": "[Pro]min", "setting": "[1]; DNA 4, QD/TF/DNA 1/1/4", "result": 0.024, "unit": "µM"}, {"measurement": "[Pro]min", "setting": "[1]; DNA 4, QD/TF/DNA 1/1/18", "result": 0.017, "unit": "µM"}, {"measurement": "[Pro]min", "setting": "[1]; DNA 4, QD/TF/DNA 1/4/9", "result": 0.066, "unit": "µM"}, {"measurement": "[Pro]min", "setting": "[1]; DNA 4, QD/TF/DNA 1/4/18", "result": 0.044, "unit": "µM"}, {"measurement": "[Pro]min", "setting": "[1]; DNA 4, QD/TF/DNA 1/16/8", "result": 0.190, "unit": "µM"}, {"measurement": "[Pro]min", "setting": "[1]; QD/TF/DNA=1/4/18, [QD]=25 nM", "result": 0.044, "unit": "µM"}]}, {"compound": "C[S+](C)[O-]", "note": "[DMSO, dimethyl sulfoxide]", "values": [{"measurement": "highest solvent concentration that did not produce a physiological change in growth", "setting": "Pimelobacter simplex; P. simplex vs solvent-free control", "result": 0.35, "unit": "% by volume"}]}, {"compound": "C[C@H](O)[C@H]1CC[C@H]2[C@@H]3CC[C@@H]4C[C@H](O[C@@H]5O[C@H](C(=O)O)[C@@H](O)[C@H](O)[C@H]5O)CC[C@]4(C)[C@H]3CC[C@]12C", "note": "[PRE-glu, 5β-Pregnane-3α,20-α-diol glucuronide]", "values": [{"measurement": "cross-reactivity", "setting": "PinR", "result": "No cross-reactivity"}, {"measurement": "cross-reactivity (in words)", "setting": "[2]", "result": "No cross-reactivity was observed"}]}, {"compound": "DNA1: Cy5-labelled PinR binding probe 5Cy5-GCCTAACTAGCCGTTCGGCTAGTTATTC-3Cy5 (SEQ ID NO: 24) (DNA, 5' {Cy5}, 3' {Cy5}, backbone and methylation of C not given here; hybridized with complementary strand to form double-stranded fluorescent oligo)", "values": [{"measurement": "[Pro]min", "setting": "[1]; QD/TF/DNA=1/4/18, [QD]=25 nM", "result": 0.073, "unit": "µM"}]}, {"compound": "DNA3: Cy5-labelled PinR binding probe 5Cy5-GCCTAACTAGCCGTTCGGCAAGTAATTC-3Cy5 (SEQ ID NO: 28) (DNA, 5' {Cy5}, 3' {Cy5}, backbone and methylation of C not given here; hybridized with complementary strand to form double-stranded fluorescent oligo)", "values": [{"measurement": "[Pro]min", "setting": "[1]; DNA 3, QD/TF/DNA 1/1/2", "result": 0.040, "unit": "µM"}, {"measurement": "[Pro]min", "setting": "[1]; DNA 3, QD/TF/DNA 1/1/18", "result": 0.072, "unit": "µM"}, {"measurement": "[Pro]min", "setting": "[1]; DNA 3, QD/TF/DNA 1/2/2", "result": 0.053, "unit": "µM"}, {"measurement": "[Pro]min", "setting": "[1]; DNA 3, QD/TF/DNA 1/2/18", "result": 0.070, "unit": "µM"}, {"measurement": "[Pro]min", "setting": "[1]; DNA 3, QD/TF/DNA 1/4/2", "result": 0.050, "unit": "µM"}, {"measurement": "[Pro]min", "setting": "[1]; DNA 3, QD/TF/DNA 1/4/18", "result": 0.040, "unit": "µM"}, {"measurement": "[Pro]min", "setting": "[1]; DNA 3, QD/TF/DNA 1/10/18", "result": 0.065, "unit": "µM"}, {"measurement": "[Pro]min", "setting": "[1]; DNA 3, QD/TF/DNA 1/16/18", "result": 0.075, "unit": "µM"}, {"measurement": "[Pro]min", "setting": "[1]; QD/TF/DNA=1/4/18, [QD]=25 nM", "result": 0.040, "unit": "µM"}]}, {"compound": "CC(C)CCC[C@@H](C)[C@H]1CC[C@H]2[C@@H]3CC=C4C[C@@H](O)CC[C@]4(C)[C@H]3CC[C@]12C", "note": "[CHL, Cholesterol]", "values": [{"measurement": "cross-reactivity", "setting": "PinR", "result": "No cross-reactivity"}, {"measurement": "cross-reactivity (in words)", "setting": "[2]", "result": "No cross-reactivity was observed"}]}, {"compound": "DNA2: Cy5-labelled PinR binding probe 5Cy5-GCCTAACTAGCCGATCGGCTAGTCATTC-3Cy5 (SEQ ID NO: 26) (DNA, 5' {Cy5}, 3' {Cy5}, backbone and methylation of C not given here; hybridized with complementary strand to form double-stranded fluorescent oligo)", "values": [{"measurement": "[Pro]min", "setting": "[1]; QD/TF/DNA=1/4/18, [QD]=25 nM", "result": 0.051, "unit": "µM"}]}, {"compound": "C[C@H](O)[C@H]1CC[C@H]2[C@@H]3CC[C@@H]4C[C@H](O)CC[C@]4(C)[C@H]3CC[C@]12C", "note": "[PRE, 5β-Pregnane-3α,20-α-diol]", "values": [{"measurement": "cross-reactivity", "setting": "PinR", "result": "No cross-reactivity"}, {"measurement": "cross-reactivity (in words)", "setting": "[2]", "result": "No cross-reactivity was observed"}]}]}
